Measurements reported in patent US8618088B2, “Methods of inhibiting choroidal neovascularization” (University of Pennsylvania, priority 2002, dated 2013).

Key:
[1] = system: choroidal neovascularization (CNV); experiment: Matrigel subretinal injection model of choroidal neovascularization (CNV), Vessel Paint staining and fluorescence microscopy; format: in vivo, Sprague-Dawley rats
Experimental: In search of effective treatments for CNV, a simple animal model was created by injecting 2-3µl Matrigel™ to the subretinal space of adult Sprague-Dawley rats using a 33-gauge needle connected to a 10µl Hamilton microsyringe. A week or more later the animals were sacrificed by CO2 inhalation and perfused with Vessel Paint, a new visualization technique recently developed in the inventors' lab that enables screening agents, including chemical compounds and proteins, for their potential in inhibiting CNV (Wen, ARVO Abstract, March 2002). Vessel Painting comprises the use of a solution containing DiI, followed by 4% paraformaldehyde solution, and is discussed further below.
The anterior portion of the eye, including the cornea and lens, was removed, and the eyecup was imbedded in 5% agarose. […] Eye sections were examined by fluorescence microscopy for neovascularization in the Matrigel™ deposit. […] Protein leakage of the new vessels was detected by assessing color change in the Matrigel™ deposit after intravenous injection of Evan's Blue dye. […]
Adult Sprague-Dawley rats (n=22) were injected with Matrigel™ to the subretinal space. […] Tissue sections were examined by fluorescence microscopy. […]
Eyes were collected 10 days after injection and blood vessels were stained with Vessel Paint. […] CNV was examined by fluorescence microscopy and CNV index of each eye was calculated.

Solubility in water = format: physicochemical

| solubility in water (Solubility in water) | effect on the normal vasculature of the eye ([1]; all experiments) | SMILES | CNV index (mean) ([1]; suspension in Matrigel 10 μg/μl, 1.2 μl subretinal, 10 days after injection) |
| --- | --- | --- | --- |
| not water soluble | – | C=CC[C@@H]1/C=C(\C)C[C@H](C)C[C@H](OC)[C@H]2O[C@@](O)(C(=O)C(=O)N3CCCC[C@H]3C(=O)O[C@H](/C(C)=C/[C@@H]3CC[C@@H](O)[C@H](OC)C3)[C@H](C)[C@@H](O)CC1=O)[C@H](C)C[C@@H]2OC [FK506] | Mean = 12.67 (n = 6) |
| not soluble in water | no discernable effect | CO[C@H]1C[C@@H]2CC[C@@H](C)[C@@](O)(O2)C(=O)C(=O)N2CCCC[C@H]2C(=O)O[C@H]([C@H](C)C[C@@H]2CC[C@@H](O)[C@H](OC)C2)CC(=O)[C@H](C)/C=C(\C)[C@@H](O)[C@@H](OC)C(=O)[C@H](C)C[C@H](C)/C=C/C=C/C=C/1C [rapamycin] | – |
